From PMC6972607, “L‐Fucose prevention of renal ischaemia/reperfusion injury in Mice” (The FASEB Journal, 2019)
pIC50: −log10 of the molar value.

Target: T1, collectin-11 (CL-11, CL-K1) (Homo sapiens, UniProt Q9BWP8)
T1 construct: gene COLEC11; recombinant homo-oligomer generated by expression of the CL-11 cDNA (isoform a)
Assay: competition ELISA, rCL-11 binding to immobilised yeast invertase

T1 sequence (Q9BWP8 26-271): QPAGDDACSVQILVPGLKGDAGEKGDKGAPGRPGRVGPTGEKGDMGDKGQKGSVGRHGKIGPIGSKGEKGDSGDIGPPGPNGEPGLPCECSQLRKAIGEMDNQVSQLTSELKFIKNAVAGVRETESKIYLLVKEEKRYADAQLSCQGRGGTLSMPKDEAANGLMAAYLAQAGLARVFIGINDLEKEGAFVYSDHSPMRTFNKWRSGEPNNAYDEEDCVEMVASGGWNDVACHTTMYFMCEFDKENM

| pIC50 | Structure (SMILES) |
| --- | --- |
| 1.93 | OC[C@H]1OC(O)[C@@H](O)[C@@H](O)[C@@H]1O (stereo partly drawn) [D-mannose] |
| 1.92 | C[C@@H]1OC(O)[C@@H](O)[C@H](O)[C@@H]1O (stereo partly drawn) [L-fucose] |
